# Reference: patent US6706663B2, “Herbicidal 3-heterocyclic substituted benzisothiazole and benzisoxazole compounds” (Wyeth, priority 2000, dated 2004)
# Key:
# [1] = system: AMBEL (Ambrosia artemisifolia); experiment: Postemergence herbicidal evaluation; format: in vivo, L.
# Procedure: (§1) In the tests, seedling plants are grown in jiffy flats for about two weeks. […] After spraying, the plants are placed on greenhouse benches and are cared for in accordance with conventional greenhouse procedures. From four to five weeks after treatment, the seedling plants are examined and rated according to the rating system set forth below. Where more than one test is involved for a given compound, the data are averaged.
# (§2) Results of herbicide evaluation are expressed on a rating scale (0-9). The scale is based upon a visual observation of plant stand, vigor, malformation, size, chlorosis and overall plant appearance as compared with a control.
# [2] = system: CHEAL (Chenopodium album); experiment: Postemergence herbicidal evaluation; format: in vivo, L.
# Procedure: as §1, §2
# [3] = system: CASOB (Cassia obtusifolia); experiment: Postemergence herbicidal evaluation; format: in vivo, L.
# Procedure: as §1, §2
# [4] = system: ABUTH (Abutilon theophrasti); experiment: Postemergence herbicidal evaluation; format: in vivo, Medic.
# Procedure: as §1, §2
# [5] = system: ECHCG (Echinochloa crus-galli); experiment: Postemergence herbicidal evaluation; format: in vivo, (L.) Beau
# Procedure: as §1, §2
# ORYSAT (Rice, Tebonnet) [6] = experiment: Preemergence herbicidal evaluation; format: in vivo, Oryza sativa, (L.) Tebonnet; settings: Rate 0.2500 kg/ha; preemergence; rated 4-5 weeks after treatment
# Source text: as §2
# (§3) The preemergence herbicidal activity of the test compounds of the present invention is exemplified by the following tests in which the seeds of a variety of monocotyledonous and dicotyledonous plants are separately mixed with potting soil and planted on top of approximately one inch of soil in separate pint cups. […] The treated cups are then placed on greenhouse benches, watered and cared for in accordance with conventional greenhouse procedures. From four to five weeks after treatment, the tests are terminated and each cup is examined and rated according to the rating system provided in Example 87. The plant species used and the compounds evaluated are the same as those shown in Example 87.
# ZEAMX (Corn, Field) [7] = experiment: Preemergence herbicidal evaluation; format: in vivo, Zea mays, L.; settings: Rate 0.2500 kg/ha; preemergence; rated 4-5 weeks after treatment
# Source text: as §2, §3
# CYPIR (Cyperus iria) = experiment: Flooded paddy, preemergence weed control; format: in vivo; settings: rate 0.1250 kg/ha, rated 3-4 weeks after treatment, 0-9 rating scale
# Procedure: as §2
# (§4) Preemergence herbicidal activity under flooded paddy conditions is determined as follows: plant seeds or propagating organs are planted in the top 0.5 cm of silt loam soil in 32 oz. plastic containers with a diameter of 10.5 cm and no drainage holes. Water is added to these containers and maintained at 1.5 to 3 cm above the soil surface for the duration of the experiment. […] The treated containers are placed on greenhouse benches and cared for in accordance with conventional greenhouse procedures.
# SETVI (Setaria viridis) [8] = experiment: Postemergence herbicidal evaluation; format: in vivo, (L.) Beau
# Procedure: In the tests, seedling plants are grown in jiffy flats for about two weeks. The test compounds are dispersed in 50/50 acetone/water mixtures containing 0.5% TWEEN® 20, a polyoxyethylene sorbitan monolaurate surfactant of Atlas Chemical Industries, in sufficient quantities to provide the equivalent of about 0.0040 kg to 1.000 kg per hectare of active compound when applied to the plants through a spray nozzle operating at 40 psi for a predetermined time. After spraying, the plants are placed on greenhouse benches and are cared for in accordance with conventional greenhouse procedures. From four to five weeks after treatment, the seedling plants are examined and rated according to the rating system set forth below. Where more than one test is involved for a given compound, the data are averaged.
# as §2
# [9] = system: IPOHE (Ipomoea hederacea); experiment: Postemergence herbicidal evaluation; format: in vivo, (L.) Jacq.
# Procedure: as §1, §2
# SETVI (Setaria viridis) [10] = experiment: Preemergence herbicidal evaluation; format: in vivo, (L.) Beau; settings: Rate 0.2500 kg/ha; preemergence; rated 4-5 weeks after treatment
# Source text: as §2, §3
# [11] = system: ECHCG (Echinochloa crus-galli); experiment: Preemergence herbicidal evaluation; format: in vivo, (L.) Beau; settings: Rate 0.2500 kg/ha; preemergence; rated 4-5 weeks after treatment
# Source text: as §2, §3
# [12] = system: TRZAWR (Wheat, Winter, cv Riband); experiment: Preemergence herbicidal evaluation; format: in vivo, Triticum aestivum; settings: Rate 0.2500 kg/ha; preemergence; rated 4-5 weeks after treatment
# Source text: as §2, §3
# [13] = system: ECHORC (Echinochloa oryzoides); experiment: Flooded paddy, preemergence weed control; format: in vivo, Echinochloa oryzoides (Ard.) Fritsch.; settings: rate 0.1250 kg/ha, rated 3-4 weeks after treatment, 0-9 rating scale
# Procedure: as §2, §4
# ORYSAT (Rice, Tebonnet) [14] = experiment: Postemergence herbicidal evaluation; format: in vivo, Oryza sativa, (L.) Tebonnet
# Procedure: as §1, §2
# GALAP (Galium aparine) [15] = experiment: Postemergence herbicidal evaluation; format: in vivo
# Procedure: as §1, §2
# [16] = system: MOOVA (Monochoria vaginalis); experiment: Flooded paddy, preemergence weed control; format: in vivo, Presl.; settings: rate 0.1250 kg/ha, rated 3-4 weeks after treatment, 0-9 rating scale
# Procedure: as §2, §4
# [17] = system: GLXMAW (Soybean, Williams); experiment: Preemergence herbicidal evaluation; format: in vivo, Glycine max, (L.) Merr. cv Williams; settings: Rate 0.2500 kg/ha; preemergence; rated 4-5 weeks after treatment
# Source text: as §2, §3
# [18] = system: TRZAWR (Wheat, Winter, cv Riband); experiment: Postemergence herbicidal evaluation; format: in vivo, Triticum aestivum
# Procedure: as §1, §2
# [19] = system: IPOHE (Ipomoea hederacea); experiment: Preemergence herbicidal evaluation; format: in vivo, (L.) Jacq.; settings: Rate 0.2500 kg/ha; preemergence; rated 4-5 weeks after treatment
# Source text: as §2, §3
# [20] = system: AMBEL (Ambrosia artemisifolia); experiment: Preemergence herbicidal evaluation; format: in vivo, L.; settings: Rate 0.2500 kg/ha; preemergence; rated 4-5 weeks after treatment
# Source text: as §2, §3
# [21] = system: CHEAL (Chenopodium album); experiment: Preemergence herbicidal evaluation; format: in vivo, L.; settings: Rate 0.2500 kg/ha; preemergence; rated 4-5 weeks after treatment
# Source text: as §2, §3
# [22] = system: CASOB (Cassia obtusifolia); experiment: Preemergence herbicidal evaluation; format: in vivo, L.; settings: Rate 0.2500 kg/ha; preemergence; rated 4-5 weeks after treatment
# Source text: as §2, §3
# ZEAMX (Corn, Field) [23] = experiment: Postemergence herbicidal evaluation; format: in vivo, Zea mays, L.
# Procedure: as §1, §2
# [24] = system: ABUTH (Abutilon theophrasti); experiment: Preemergence herbicidal evaluation; format: in vivo, Medic.; settings: Rate 0.2500 kg/ha; preemergence; rated 4-5 weeks after treatment
# Source text: as §2, §3
# [25] = system: SAGPY (Sagittaria pygmaea); experiment: Flooded paddy, preemergence weed control; format: in vivo, L.; settings: rate 0.1250 kg/ha, rated 3-4 weeks after treatment, 0-9 rating scale
# Procedure: as §2, §4
# ORYSAT (Rice, Tebonnet) [26] = experiment: Flooded paddy, post-transplant rice tolerance; format: in vivo, Oryza sativa, (L.) Tebonnet; settings: flooded paddy, post-transplant rice; rate 0.1250 kg/ha; rated 3-4 weeks after treatment; 0-9 rating scale
# Procedure: as §2
# The tolerance of transplanted rice to post-transplanted herbicide application is determined as follows: two ten-day-old rice seedlings (cv. Tebonnet) are transplanted into silt loam soil in 32 oz. plastic containers with a diameter of 10.5 cm and no drainage holes. After transplanting, the containers are flooded and the water level is maintained at 1.5 to 3 cm above the soil surface. […] The treated containers are placed on greenhouse benches, watered such that the water level is maintained as stated above, and cared for in accordance with conventional greenhouse procedures.
# [27] = system: CYPSE (Cyperus serotinus); experiment: Flooded paddy, preemergence weed control; format: in vivo, Rottb.; settings: rate 0.1250 kg/ha, rated 3-4 weeks after treatment, 0-9 rating scale
# Procedure: as §2
# Preemergence herbicidal activity under flooded paddy conditions is determined as follows: plant seeds or propagating organs are planted in the top 0.5 cm of silt loam soil in 32 oz. plastic containers with a diameter of 10.5 cm and no drainage holes. Water is added to these containers and maintained at 1.5 to 3 cm above the soil surface for the duration of the experiment. The test compounds are applied as aqueous/acetone mixtures 50/50 v/v pipetted directly into the flood water to give the equivalent of about 0.0080 to 0.1250 kg/ha of active ingredient. The treated containers are placed on greenhouse benches and cared for in accordance with conventional greenhouse procedures. Three to four weeks after treatment, the test is terminated and each container is examined and herbicidal effect rated according to the rating system provided in Example 87.
# [28] = system: GLXMAW (Soybean, Williams); experiment: Postemergence herbicidal evaluation; format: in vivo, Glycine max, (L.) Merr. cv Williams
# Procedure: as §1, §2
# GALAP (Galium aparine) [29] = experiment: Preemergence herbicidal evaluation; format: in vivo; settings: Rate 0.2500 kg/ha; preemergence; rated 4-5 weeks after treatment
# Source text: as §2, §3
SMILES,"ORYSAT preemergence herbicidal rating (ORYSAT (Rice, Tebonnet) [6])","ZEAMX preemergence herbicidal rating (ZEAMX (Corn, Field) [7])","herbicidal rating, CYPIR (CYPIR (Cyperus iria))",SETVI preemergence herbicidal rating (SETVI (Setaria viridis) [10]),ECHCG preemergence herbicidal rating [11],TRZAWR preemergence herbicidal rating [12],"herbicidal rating, ECHORC [13]","herbicidal rating, MOOVA [16]",GLXMAW preemergence herbicidal rating [17],IPOHE preemergence herbicidal rating [19],AMBEL preemergence herbicidal rating [20],CHEAL preemergence herbicidal rating [21],CASOB preemergence herbicidal rating [22],ABUTH preemergence herbicidal rating [24],"herbicidal rating, SAGPY [25]","herbicidal rating, ORYSAT (rice tolerance) (ORYSAT (Rice, Tebonnet) [26])","herbicidal rating, CYPSE [27]","Postemergence herbicidal rating, AMBEL ([1]; rate 0.0620 kg/ha)","Postemergence herbicidal rating, CHEAL ([2]; rate 0.0620 kg/ha)","Postemergence herbicidal rating, CASOB ([3]; rate 0.0620 kg/ha)",other results
"Cn1cccc1-c1nsc2ccc(-n3c(=O)cc(C(F)(F)F)n(C)c3=O)cc12 [Compound 6, 1-methyl-3-[3-(1-methylpyrrol-2-yl)-1,2-benzisothiazol-5-yl]-6-(trifluoromethyl)uracil]",2.0,5.0,9.0,8.0,9.0,2.0,2.0,9.0,4.0,9.0,9.0,9.0,0.0,9.0,4.0,3.0,9.0,–,–,–,"Postemergence herbicidal rating, AMBEL ([1]; rate 0.1250 kg/ha): 3.0; Postemergence herbicidal rating, CHEAL ([2]; rate 0.1250 kg/ha): 4.0; Postemergence herbicidal rating, CASOB ([3]; rate 0.1250 kg/ha): 0.0; Postemergence herbicidal rating, ABUTH ([4]; rate 0.1250 kg/ha): 9.0; Postemergence herbicidal rating, ECHCG ([5]; rate 0.1250 kg/ha): 0.0; Postemergence herbicidal rating, SETVI (SETVI (Setaria viridis) [8]; rate 0.1250 kg/ha): 0.0; Postemergence herbicidal rating, IPOHE ([9]; rate 0.1250 kg/ha): 9.0; Postemergence herbicidal rating, ORYSAT (ORYSAT (Rice, Tebonnet) [14]; rate 0.1250 kg/ha): 3.0; Postemergence herbicidal rating, GALAP (GALAP (Galium aparine) [15]; rate 0.1250 kg/ha): 4.0; Postemergence herbicidal rating, TRZAWR ([18]; rate 0.1250 kg/ha): 4.5; Postemergence herbicidal rating, ZEAMX (ZEAMX (Corn, Field) [23]; rate 0.1250 kg/ha): 5.0; Postemergence herbicidal rating, GLXMAW ([28]; rate 0.1250 kg/ha): 7.5"
"Cn1c(C(F)(F)F)cc(=O)n(-c2ccc3snc(-c4cccnc4)c3c2)c1=O [Compound 11, 1-methyl-3-[3-(3-pyridyl)-1,2-benzisothiazol-5-yl]-6-(trifluoromethyl)uracil]",5.0,5.5,9.0,9.0,8.0,4.0,5.0,9.0,7.5,7.0,9.0,9.0,9.0,9.0,0.0,3.0,0.0,9.0,8.0,1.0,"Postemergence herbicidal rating, ABUTH ([4]; rate 0.0620 kg/ha): 9.0; Postemergence herbicidal rating, ECHCG ([5]; rate 0.0620 kg/ha): 0.0; Postemergence herbicidal rating, SETVI (SETVI (Setaria viridis) [8]; rate 0.0620 kg/ha): 7.0; Postemergence herbicidal rating, IPOHE ([9]; rate 0.0620 kg/ha): 9.0; Postemergence herbicidal rating, ORYSAT (ORYSAT (Rice, Tebonnet) [14]; rate 0.0620 kg/ha): 3.5; GALAP preemergence herbicidal rating (GALAP (Galium aparine) [29]): 9.0; Postemergence herbicidal rating, GALAP (GALAP (Galium aparine) [15]; rate 0.0620 kg/ha): 6.0; Postemergence herbicidal rating, TRZAWR ([18]; rate 0.0620 kg/ha): 3.5; Postemergence herbicidal rating, ZEAMX (ZEAMX (Corn, Field) [23]; rate 0.0620 kg/ha): 5.5; Postemergence herbicidal rating, GLXMAW ([28]; rate 0.0620 kg/ha): 6.5"
"C[C@@H]1O[C@@H]1c1nsc2ccc(-n3c(=O)cc(C(F)(F)F)n(C)c3=O)cc12 [Compound 13, 3-[3-[(1R,2S)-1,2-epoxypropyl]-1,2-benzisothiazol-5-yl]-1-methyl-6-(trifluoromethyl)uracil]",7.5,7.0,8.0,9.0,9.0,5.0,6.0,9.0,7.5,9.0,9.0,9.0,9.0,9.0,4.0,7.5,6.5,9.0,6.0,5.0,"Postemergence herbicidal rating, ABUTH ([4]; rate 0.0620 kg/ha): 9.0; Postemergence herbicidal rating, ECHCG ([5]; rate 0.0620 kg/ha): 3.0; Postemergence herbicidal rating, SETVI (SETVI (Setaria viridis) [8]; rate 0.0620 kg/ha): 7.0; Postemergence herbicidal rating, IPOHE ([9]; rate 0.0620 kg/ha): 7.0; Postemergence herbicidal rating, ORYSAT (ORYSAT (Rice, Tebonnet) [14]; rate 0.0620 kg/ha): 3.0; GALAP preemergence herbicidal rating (GALAP (Galium aparine) [29]): 9.0; Postemergence herbicidal rating, GALAP (GALAP (Galium aparine) [15]; rate 0.0620 kg/ha): 9.0; Postemergence herbicidal rating, TRZAWR ([18]; rate 0.0620 kg/ha): 3.0; Postemergence herbicidal rating, ZEAMX (ZEAMX (Corn, Field) [23]; rate 0.0620 kg/ha): 5.0; Postemergence herbicidal rating, GLXMAW ([28]; rate 0.0620 kg/ha): 7.0"
